Measured values published in BindingDB's records for doi:10.1016/j.bmc.2006.06.050 (Enscmu, 2006).
Where a name gives a salt, the structure may show the parent alone.

How the values were obtained:
Assay in all cases: Enzyme Inhibition Assay
[1] = biological target: Bacterial leucyl aminopeptidase (Vibrio proteolyticus, UniProt Q01693)
[2] = biological target: T1, Aminopeptidase N (Sus scrofa, UniProt P15145)
T1 sequence (P15145 whole entry): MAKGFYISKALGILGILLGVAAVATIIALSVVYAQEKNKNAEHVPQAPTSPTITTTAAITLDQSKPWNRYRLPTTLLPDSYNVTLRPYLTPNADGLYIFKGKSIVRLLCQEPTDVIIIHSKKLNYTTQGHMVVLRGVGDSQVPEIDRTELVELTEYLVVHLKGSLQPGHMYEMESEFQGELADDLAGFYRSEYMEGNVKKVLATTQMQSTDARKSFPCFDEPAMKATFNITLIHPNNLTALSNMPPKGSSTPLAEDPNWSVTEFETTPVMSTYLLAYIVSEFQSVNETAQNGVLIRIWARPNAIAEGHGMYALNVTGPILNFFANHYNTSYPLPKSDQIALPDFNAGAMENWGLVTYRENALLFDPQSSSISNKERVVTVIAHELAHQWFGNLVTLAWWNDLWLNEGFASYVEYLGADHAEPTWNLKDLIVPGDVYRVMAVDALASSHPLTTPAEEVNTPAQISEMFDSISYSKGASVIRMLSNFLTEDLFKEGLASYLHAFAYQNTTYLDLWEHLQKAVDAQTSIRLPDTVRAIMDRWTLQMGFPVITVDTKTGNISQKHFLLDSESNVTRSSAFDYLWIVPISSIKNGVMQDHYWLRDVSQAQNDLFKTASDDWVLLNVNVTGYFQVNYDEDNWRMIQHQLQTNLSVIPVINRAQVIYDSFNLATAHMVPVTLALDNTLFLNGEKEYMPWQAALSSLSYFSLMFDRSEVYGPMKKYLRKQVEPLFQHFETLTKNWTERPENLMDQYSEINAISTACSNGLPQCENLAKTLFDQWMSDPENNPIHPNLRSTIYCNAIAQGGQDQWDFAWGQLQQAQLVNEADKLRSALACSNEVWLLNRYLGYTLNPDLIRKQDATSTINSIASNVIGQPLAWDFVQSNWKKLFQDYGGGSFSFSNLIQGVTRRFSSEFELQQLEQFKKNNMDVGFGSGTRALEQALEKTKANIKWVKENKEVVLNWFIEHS

[3] = biological target: T2, Leukotriene A-4 hydrolase (Homo sapiens, UniProt P09960)
T2 sequence (P09960 whole entry): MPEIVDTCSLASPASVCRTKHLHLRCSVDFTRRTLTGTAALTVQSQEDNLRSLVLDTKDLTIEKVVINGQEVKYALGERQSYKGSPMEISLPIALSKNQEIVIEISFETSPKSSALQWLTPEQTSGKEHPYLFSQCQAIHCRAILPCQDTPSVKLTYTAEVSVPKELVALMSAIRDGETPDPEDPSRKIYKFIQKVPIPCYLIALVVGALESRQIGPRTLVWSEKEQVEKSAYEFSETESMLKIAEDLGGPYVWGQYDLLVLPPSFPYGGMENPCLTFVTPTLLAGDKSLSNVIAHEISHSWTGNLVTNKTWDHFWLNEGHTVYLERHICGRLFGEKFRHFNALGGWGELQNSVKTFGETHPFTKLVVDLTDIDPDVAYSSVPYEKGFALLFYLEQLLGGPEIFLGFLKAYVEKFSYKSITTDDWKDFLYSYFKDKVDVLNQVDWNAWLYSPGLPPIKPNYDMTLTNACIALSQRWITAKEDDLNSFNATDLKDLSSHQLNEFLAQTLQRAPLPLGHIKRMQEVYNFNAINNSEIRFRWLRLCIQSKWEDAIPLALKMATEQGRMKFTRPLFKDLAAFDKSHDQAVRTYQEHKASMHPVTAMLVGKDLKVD

Chain of Bacterial leucyl aminopeptidase (Q01693 whole entry): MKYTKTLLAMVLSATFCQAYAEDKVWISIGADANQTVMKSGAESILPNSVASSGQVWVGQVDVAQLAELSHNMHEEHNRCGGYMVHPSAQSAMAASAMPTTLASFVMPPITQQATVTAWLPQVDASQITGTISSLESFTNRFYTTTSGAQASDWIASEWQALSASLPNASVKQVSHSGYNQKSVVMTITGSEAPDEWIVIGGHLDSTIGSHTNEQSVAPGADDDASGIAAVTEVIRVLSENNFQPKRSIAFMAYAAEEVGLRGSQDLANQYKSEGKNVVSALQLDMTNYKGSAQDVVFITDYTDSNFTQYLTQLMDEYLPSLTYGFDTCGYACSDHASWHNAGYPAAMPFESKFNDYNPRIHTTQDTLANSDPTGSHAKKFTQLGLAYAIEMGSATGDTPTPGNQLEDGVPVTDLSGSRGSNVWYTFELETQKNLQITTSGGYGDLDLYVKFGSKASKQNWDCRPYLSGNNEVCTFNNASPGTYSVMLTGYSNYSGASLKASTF

Compound	IC50 ([1]; pH 8, 30 °C) [µM]	Ki [2] [µM]	Ki [3] [µM]	Ki [1] [µM]	IC50 [2] [µM]	IC50 [3] [µM]	IC50 [1] [µM]
NC1Cc2ccccc2C/C1=N/OCCCCCc1ccccc1 (stereo not given) [(3Z)-3-{[(5-phenylpentyl)oxy]imino}-1,2,3,4-tetrahydronaphthalen-2-amine hydrochloride]	130	80	30				
NC1Cc2ccccc2C/C1=N/OCc1ccccc1 (stereo not given) [(3Z)-3-[(benzyloxy)imino]-1,2,3,4-tetrahydronaphthalen-2-amine hydrochloride]	210				790	> 1000	
NC1Cc2ccccc2CC1C(=O)NO (stereo not given) [3-amino-N-hydroxy-1,2,3,4-tetrahydronaphthalene-2-carboxamide hydrochloride]		4		4		> 1000	
NC1Cc2ccccc2C/C1=N/OCCc1ccccc1 (stereo not given) [(3Z)-3-[(2-phenylethoxy)imino]-1,2,3,4-tetrahydronaphthalen-2-amine hydrochloride]	170	260				500	
NC1CCc2ccccc2C1 [(2S)-1,2,3,4-Tetrahydro-naphthalen-2-ylamine]	> 1000				> 1000	> 1000	
NC1Cc2ccccc2CC1P(=O)(O)O (stereo not given) [3-amino-1,2,3,4-tetrahydronaphthalene-2-phosphonic acid hydrochloride]					500	> 1000	150
NC1Cc2ccccc2C/C1=N/OCCCCc1ccccc1 (stereo not given) [(3Z)-3-[(4-phenylbutoxy)imino]-1,2,3,4-tetrahydronaphthalen-2-amine hydrochloride]	110	55	8				
NC1Cc2ccccc2C/C1=N/OCCCc1ccccc1 (stereo not given) [(3Z)-3-[(3-phenylpropoxy)imino]-1,2,3,4-tetrahydronaphthalen-2-amine hydrochloride]	300	110	6				

The next lines start with the values.

IC50 ([1]; pH 8, 30 °C) [µM]	Ki [2] [µM]	Ki [3] [µM]	Ki [1] [µM]	IC50 [2] [µM]	IC50 [3] [µM]	IC50 [1] [µM]	Compound
			4	> 1000	> 1000		O=C1Cc2ccccc2CS1 [3,4-dihydro-1H-2-benzothiopyran-3-one]
			80	> 1000	> 1000		NC1Cc2ccccc2NC1=O (stereo not given) [3-amino-1,2,3,4-tetrahydroquinolin-2-one hydrochloride]
800	130				> 1000		CO/N=C1/Cc2ccccc2CC1N (stereo not given) [(3Z)-3-(methoxyimino)-1,2,3,4-tetrahydronaphthalen-2-amine hydrochloride]
500				> 1000	750		CC(=O)C1Cc2ccccc2CC1N (stereo not given) [1-(3-amino-1,2,3,4-tetrahydronaphthalen-2-yl)ethan-1-one hydrochloride]
130					> 1000		NC1Cc2ccccc2CC1=O (stereo not given) [3-amino-1,2,3,4-tetrahydronaphthalen-2-one hydrochloride]
				> 1000	> 1000	740	NN1Cc2ccccc2CC1=O [2-amino-1,2,3,4-tetrahydroisoquinolin-3-one]
			4	> 1000	> 1000		O=C1Cc2ccccc2CN1O [2-hydroxy-1,2,3,4-tetrahydroisoquinolin-3-one]
				> 1000	> 1000	> 1000	O=C1Cc2ccccc2CO1 [3,4-dihydro-1H-2-benzopyran-3-one]
				> 1000	> 1000	> 1000	O=C1CCc2ccccc2C1 [1,2,3,4-tetrahydronaphthalen-2-one]
